Here are results for 15 compounds from patent publication US9133183B2, “Imidazolidinones and analogs exhibiting anti-cancer and anti-proliferative activities” (Deciphera Pharmaceuticals, LLC, priority 2013, dated 2015).

Test [1] addresses unphosphorylated c-FMS kinase (uFMS, Seq. ID no. 1) (Homo sapiens (Human), UniProt P07333). The test is described as follows: uFMS kinase assay (ADP production coupled to pyruvate kinase/lactate dehydrogenase). The test is classed as biochemical. As to conditions: enzymatic assay, ATP 500 μM. As for the experimental part: uFMS kinase (Seq. ID No. 1) Assay
In this assay, the oxidation of NADH (thus the decrease at A340 nm) was continuously monitored spectrophometrically. The reaction mixture (100 μL) contained FMS (purchased from Millipore) (10 nM), polyE4Y (1 mg/mL), MgCl2 (10 mM), pyruvate kinase (4 units), lactate dehydrogenase (0.7 units), phosphoenol pyruvate (1 mM), NADH (0.28 mM) and ATP (500 μM) in 90 mM Tris buffer containing 0.2% octyl-glucoside and 1% DMSO, pH 7.5. The inhibition reaction was started by mixing serial diluted test compound with the above reaction mixture. The absorption at 340 nm was monitored continuously for 4 hours at 30° C. on Synergy 2 plate reader. The reaction rate was calculated using the 3 to 4 h time frame. Percent inhibition was obtained by comparison of reaction rate with that of a control (i.e., in the absence of test compound). IC50 values were calculated from a series of percent inhibition values determined at a range of inhibitor concentrations using software routines as implemented in the GraphPad Prism software package.
uFMS Kinase Sequence (Y538-End) Used for Screening (Seq. ID No. 1)

Another test relates to osteoclast precursors. The test is described as follows: Osteoclast tartrate-resistant acid phosphatase assay. Type of test: cell-based. Particulars: Osteoclast, 7-14 days, RANKL and M-CSF. On the procedure:
Osteoclast Tartrate-Resistant Acid Phosphatase Assay
A serial dilution of test compound was dispensed into a 384-well black clear bottom plate (Nalge Nunc International, Rochester, N.Y.). Compound was diluted by the addition of DMEM media supplemented with 10% characterized fetal bovine serum (Invitrogen, Carlsbad, Calif.). Diluted compound was transferred to a 384-well black clear bottom plate. Two-thousand five hundred osteoclast precursors (Lonza, Walkersville, Md.) were added per well in growth media containing Receptor Activator of Nuclear Factor Kappa-beta ligand (RANKL) and M-CSF (R&D Systems, Minneapolis, Minn.). Plates were incubated for 7-14 days at 37 degrees Celsius, 5% CO2, and 95% humidity to allow differentiation of osteoclast precursors. At the end of the incubation period, 10 μL of supernatant from each well was transferred to a clear 384-well plate. Tartrate-resistant acid phosphatase activity in the supernatant samples was determined using an acid phosphatase assay kit (Sigma, St. Louis, Mo.). Absorbance was measured at 550 nm using a plate reader. Data was analyzed using Prism software (Graphpad, San Diego, Calif.) to calculate IC50 values.

The target of test [2] is unphosphorylated c-KIT kinase (uKIT, Seq. ID no. 2) (Homo sapiens (Human), UniProt P10721). The test is described as follows: uKit kinase assay (coupled pyruvate kinase/lactate dehydrogenase). The test is classed as biochemical. Particulars: enzymatic assay, ATP 2000 μM. On the procedure:
uKit Kinase (Seq. ID No. 2) Assay
Activity of unphosphorylated c-KIT kinase (uKIT, Seq. ID no. 2) was determined by following the production of ADP from the KIT kinase reaction with ATP and poly E4Y as substrates through coupling with the pyruvate kinase/lactate dehydrogenase system (e.g., Schindler et al. Science (2000) 289: 1938-1942). In this assay, the oxidation of NADH (thus the decrease at A340 nm) was continuously monitored spectrophometrically. The reaction mixture (100 μl) contained unphosphorylated KIT (12 nM), polyE4Y (1 mg/mL), MgCl2 (10 mM), pyruvate kinase (4 units), lactate dehydrogenase (0.7 units), phosphoenol pyruvate (1 mM), and NADH (0.28 mM) and ATP (2000 μM) in 90 mM Tris buffer containing 0.2% octyl-glucoside and 1% DMSO, pH 7.5. The inhibition reaction was started by mixing serial diluted test compound with the above reaction mixture. The absorption at 340 nm was monitored continuously for 4 hours at 30° C. on Synergy 2 plate reader (BioTech). Reaction rates around 3 to 4 h time frame were used to calculate % inhibitions, from which IC50 values were generated.
uKit with N-Terminal GST Fusion Used for Screening (Seq ID No. 2)

Another test concerns M-NFS-60 cells. The test is described as follows: M-NFS-60 cell proliferation assay (resazurin). As to conditions: 67 h incubation. The test is classed as cell-based. As for the experimental part:
M-NFS-60 cells (catalog #CRL-1838) were obtained from the American Type Culture Collection (ATCC, Manassas, Va.). Briefly, cells were grown in suspension in RPMI 1640 medium supplemented with 10% characterized fetal bovine serum (Invitrogen, Carlsbad, Calif.), 0.05 mM 2-mercaptoethanol, and 20 ng/mL mouse recombinant macrophage colony stimulating factor (M-CSF) at 37° C., 5% CO2, and 95% humidity. Cells were allowed to expand until reaching saturation at which point they were subcultured or harvested for assay use.
M-NFS-60 Cell Proliferation Assay
A serial dilution of test compound was dispensed into a 384-well black clear bottom plate (Corning, Corning, N.Y.). Two thousand five hundred cells were added per well in 50 μL complete growth medium. Plates were incubated for 67 h at 37° C., 5% CO2, and 95% humidity. At the end of the incubation period 10 μL of a 440 μM solution of resazurin (Sigma, St. Louis, Mo.) in PBS was added to each well and incubated for an additional 5 h at 37° C., 5% CO2, and 95% humidity. Plates were read on a Synergy2 reader (Biotek, Winooski, Vt.) using an excitation of 540 nm and an emission of 600 nm. IC50 values were calculated from a series of percent inhibition values determined at a range of inhibitor concentrations using software routines as implemented in the GraphPad Prism software package.

Like-named read-outs stand apart in the source and are kept apart here.

Sequence of unphosphorylated c-KIT kinase (uKIT, Seq. ID no. 2) (P10721 other isoform, or with tags, fused parts or gaps): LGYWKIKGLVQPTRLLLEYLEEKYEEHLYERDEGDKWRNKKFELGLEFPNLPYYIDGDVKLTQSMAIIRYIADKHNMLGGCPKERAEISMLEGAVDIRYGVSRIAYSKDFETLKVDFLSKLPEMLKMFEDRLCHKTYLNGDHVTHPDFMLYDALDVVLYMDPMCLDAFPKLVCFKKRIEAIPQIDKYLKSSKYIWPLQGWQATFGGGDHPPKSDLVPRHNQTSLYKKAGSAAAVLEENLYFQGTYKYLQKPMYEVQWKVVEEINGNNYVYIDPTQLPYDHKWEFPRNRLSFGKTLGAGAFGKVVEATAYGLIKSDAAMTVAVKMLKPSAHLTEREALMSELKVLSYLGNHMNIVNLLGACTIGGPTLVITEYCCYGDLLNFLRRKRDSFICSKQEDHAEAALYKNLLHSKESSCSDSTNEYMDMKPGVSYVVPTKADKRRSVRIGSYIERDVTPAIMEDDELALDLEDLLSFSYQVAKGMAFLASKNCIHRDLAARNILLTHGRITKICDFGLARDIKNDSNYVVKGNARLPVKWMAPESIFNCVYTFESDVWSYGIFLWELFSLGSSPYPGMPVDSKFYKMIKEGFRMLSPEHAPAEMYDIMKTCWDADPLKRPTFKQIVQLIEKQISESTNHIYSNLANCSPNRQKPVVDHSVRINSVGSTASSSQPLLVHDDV
Sequence of unphosphorylated c-FMS kinase (uFMS, Seq. ID no. 1) (P07333 538-972): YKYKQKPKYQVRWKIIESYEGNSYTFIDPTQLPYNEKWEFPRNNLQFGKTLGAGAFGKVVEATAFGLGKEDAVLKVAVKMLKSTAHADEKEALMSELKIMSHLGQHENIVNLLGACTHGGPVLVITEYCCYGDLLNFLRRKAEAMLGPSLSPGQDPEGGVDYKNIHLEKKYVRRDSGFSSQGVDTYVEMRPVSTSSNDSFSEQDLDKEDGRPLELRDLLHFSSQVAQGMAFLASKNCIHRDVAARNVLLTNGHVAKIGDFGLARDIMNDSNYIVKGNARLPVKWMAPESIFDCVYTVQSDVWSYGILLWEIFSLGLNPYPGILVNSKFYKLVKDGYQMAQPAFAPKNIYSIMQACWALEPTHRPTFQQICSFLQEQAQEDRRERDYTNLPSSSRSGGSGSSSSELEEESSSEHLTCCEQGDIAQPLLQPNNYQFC

As to `Cc1cn(-c2cc(Oc3ccc(NC(=O)N4CCN(C5CCOCC5)C4=O)nc3)ccn2)cn1` [Example 77, N-(5-((2-(4-methyl-11H-imidazol-1-yl)pyridin-4-yl)oxy)pyridin-2-yl)-2-oxo-3-(tetrahydro-2H-pyran-4-yl)imidazolidine-1-carboxamide], the IC50 was 10 to 100 nM in test [1] (read-out: uFMS), 100 to 1000 nM in the test with osteoclast precursors, 10 to 100 nM in test [2] and 100 to 1000 nM with M-NFS-60 cells.
For the compound `N#CCC(=O)Nc1cc(Oc2cc(F)c(NC(=O)N3CCN(C4CCOCC4)C3=O)cc2Cl)ccn1` [Example 114, N-(5-chloro-4-((2-(2-cyanoacetamido)pyridin-4-yl)oxy)-2-fluorophenyl)-2-oxo-3-(tetrahydro-2H-pyran-4-yl)imidazolidine-1-carboxamide], the IC50 in test [1] (read-out: uFMS) and in test [2] was above 1000 nM each time.
In the case of `COCCN1CCN(C(=O)Nc2ccc(Oc3ccnc(-c4cn(C)cn4)c3)c(C)n2)C1=O` [Example 81, 3-(2-methoxyethyl)-N-(6-methyl-5-((2-(1-methyl-1H-imidazol-4-yl)pyridin-4-yl)oxy)pyridin-2-yl)-2-oxoimidazolidine-1-carboxamide], the IC50 in test [1] (read-out: uFMS) is 10 to 100 nM; in the test on osteoclast precursors, 100 to 1000 nM; in test [2], above 1000 nM; in the test with M-NFS-60 cells it was 100 to 1000 nM.
In the case of `Cc1ncc(-c2cc(Oc3ccc(NC(=O)N4CCN(CC(F)(F)F)C4=O)nc3C)ccn2)s1` [Example 74, N-(6-methyl-5-((2-(2-methylthiazol-5-yl)pyridin-4-yl)oxy)pyridin-2-yl)-2-oxo-3-(2,2,2-trifluoroethyl)imidazolidine-1-carboxamide], the IC50 in test [1] (read-out: uFMS) lay within 10 to 100 nM; in the test on osteoclast precursors it was 10 to 100 nM; in test [2], 100 to 1000 nM; in the test on M-NFS-60 cells it was 100 to 1000 nM.
On to `Cn1cc(-c2cc(Oc3ccc(NC(=O)N4CCN(C5CCOCC5)C4=O)c(F)c3Cl)ccn2)cn1` [Example 113, N-(3-chloro-2-fluoro-4-((2-(1-methyl-1H-pyrazol-4-yl)pyridin-4-yl)oxy)phenyl)-2-oxo-3-(tetrahydro-2H-pyran-4-yl)imidazolidine-1-carboxamide], for which the IC50 in test [1] (read-out: uFMS) is below 10 nM; in test [2], 10 to 100 nM; in the test on M-NFS-60 cells, 100 to 1000 nM.
As to `Cc1cc(-c2cc(Oc3ccc(NC(=O)N4CCN(C5CCOCC5)C4=O)nc3C)ccn2)ccn1` [Example 87, N-(6-methyl-5-((2′-methyl-[2,4′-bipyridin]-4-yl)oxy)pyridin-2-yl)-2-oxo-3-(tetrahydro-2H-pyran-4-yl)imidazolidine-1-carboxamide], the IC50 is below 10 nM in test [1] (read-out: uFMS), 10 to 100 nM in the test with osteoclast precursors, 10 to 100 nM in test [2] and 10 to 100 nM in the test with M-NFS-60 cells.
On to `COC[C@H](C)N1CCN(C(=O)Nc2ccc(Oc3ccnc(-c4cnn(C)c4)c3)c(C)n2)C1=O` [Example 38, (S)-3-(1-methoxypropan-2-yl)-N-(6-methyl-5-((2-(1-methyl-1H-pyrazol-4-yl)pyridin-4-yl)oxy)pyridin-2-yl)-2-oxoimidazolidine-1-carboxamide], for which the IC50 was 10 to 100 nM in test [1] (uFMS), below 10 nM in the test with osteoclast precursors, below 10 nM in test [2] and 10 to 100 nM with M-NFS-60 cells.
Regarding `Cc1cn(-c2cc(Oc3ccc(NC(=O)N4CCN(CC(F)(F)F)C4=O)nc3)ccn2)cn1` [Example 76, N-(5-((2-(4-methyl-1H-imidazol-1-yl)pyridin-4-yl)oxy)pyridin-2-yl)-2-oxo-3-(2,2,2-trifluoroethyl)imidazolidine-1-carboxamide], the IC50 lay within 10 to 100 nM in test [1] (read-out: uFMS), 100 to 1000 nM in the test with osteoclast precursors, 100 to 1000 nM in test [2] and 100 to 1000 nM in the test on M-NFS-60 cells.
Regarding `COCCN1CCN(C(=O)Nc2ccc(Oc3ccnc(-c4cnc(C)s4)c3)cn2)C1=O` [Example 62, 3-(2-methoxyethyl)-N-(5-((2-(2-methylthiazol-5-yl)pyridin-4-yl)oxy)pyridin-2-yl)-2-oxoimidazolidine-1-carboxamide], the IC50 (in test [1] (read-out: uFMS); in the test with osteoclast precursors; in test [2]; with M-NFS-60 cells) was 100 to 1000 nM each time.
Regarding `Cc1ncc(-c2cc(Oc3ccc(NC(=O)N4CCN(C5CCCC5)C4=O)nc3C)ccn2)s1` [Example 75, 3-cyclopentyl-N-(6-methyl-5-((2-(2-methylthiazol-5-yl)pyridin-4-yl)oxy)pyridin-2-yl)-2-oxoimidazolidine-1-carboxamide], the IC50 is below 10 nM in test [1] (read-out: uFMS), 10 to 100 nM in the test on osteoclast precursors, 100 to 1000 nM in test [2] and 10 to 100 nM in the test with M-NFS-60 cells.
With `CC1CN(C(=O)Nc2ccc(Oc3ccnc(-c4cnn(C)c4)c3)cn2)C(=O)N1C1CCOCC1` (centres unmarked) [Example 40, 4-methyl-N-(5-((2-(1-methyl-1H-pyrazol-4-yl)pyridin-4-yl)oxy)pyridin-2-yl)-2-oxo-3-(tetrahydro-2H-pyran-4-yl)imidazolidine-1-carboxamide], the IC50 in test [1] (read-out: uFMS) is below 10 nM; in test [2] it was 10 to 100 nM; in the test with M-NFS-60 cells, 10 to 100 nM.
As for `CCN1CCN(C(=O)Nc2ccc(Oc3ccnc(-n4cnc(C)c4)c3)cn2)C1=O` [Example 79, 3-ethyl-N-(5-((2-(4-methyl-1H-imidazol-1-yl)pyridin-4-yl)oxy)pyridin-2-yl)-2-oxoimidazolidine-1-carboxamide], the IC50 is 100 to 1000 nM in test [1] (read-out: uFMS), 100 to 1000 nM with osteoclast precursors, 100 to 1000 nM in test [2] and above 1000 nM in the test with M-NFS-60 cells.
With `Cc1ncc(-c2cc(Oc3ccc(NC(=O)N4CCN(C5CCOCC5)C4=O)nc3C)ccn2)s1` [Example 66, N-(6-methyl-5-((2-(2-methylthiazol-5-yl)pyridin-4-yl)oxy)pyridin-2-yl)-2-oxo-3-(tetrahydro-2H-pyran-4-yl)imidazolidine-1-carboxamide], the IC50 in test [1] (read-out: uFMS) fell in the range of 10 to 100 nM; in the test on osteoclast precursors, 100 to 1000 nM; in test [2], 100 to 1000 nM; with M-NFS-60 cells it was 100 to 1000 nM.
For the compound `CCN1CCN(C(=O)Nc2ccc(Oc3ccnc(-c4cn(C)cn4)c3)cn2)C1=O` [Example 82, 3-ethyl-N-(5-((2-(1-methyl-1H-imidazol-4-yl)pyridin-4-yl)oxy)pyridin-2-yl)-2-oxoimidazolidine-1-carboxamide], the IC50 is 10 to 100 nM in test [1] (read-out: uFMS), 10 to 100 nM in the test on osteoclast precursors, below 10 nM in test [2] and 10 to 100 nM with M-NFS-60 cells.
Regarding `Cc1ncc(-c2cc(Oc3ccc(NC(=O)N4CCN(C)C4=O)nc3C)ccn2)s1` [Example 73, 3-methyl-N-(6-methyl-5-((2-(2-methylthiazol-5-yl)pyridin-4-yl)oxy)pyridin-2-yl)-2-oxoimidazolidine-1-carboxamide], the IC50 in test [1] (read-out: uFMS) is 100 to 1000 nM; in the test with osteoclast precursors, 100 to 1000 nM; in test [2] it was above 1000 nM; in the test on M-NFS-60 cells, above 1000 nM.
